# In ChEMBL document CHEMBL4706557, “Synthesis and in vitro and in vivo biological evaluation of novel derivatives of flexicaulin A as antiproliferative agents” (Eur J Med Chem, 2020):
# Active and inactive are the calls of the source. The calls are words filed in the database; no cut-off is given here.
# Assays:
# [1] = test system: ECa-109 cell line; test: Antiproliferative activity against human EC109 cells assessed as inhibition of cell growth incubated for 72 hrs by SRB assay; assay type: functional, cell-based; conditions: ECa-109, 72 h
# [2] = test system: GES1; test: Cytotoxicity against human GES1 cells assessed as reduction in survival rate at 0 to 8 uM by SRB assay; assay type: cell-based; conditions: ges1, 8 µM, TDE = time-dependent effect, dose 0-8 µM
# [3] = test system: GES1; test: Cytotoxicity against human GES1 cells assessed as inhibition of cell growth incubated for 72 hrs by SRB assay; assay type: cell-based; conditions: GES1, 72 h
# [4] = test system: ECa-109 cell line; test: Induction of apoptosis in human EC-109 cells assessed as apoptotic rate at 0.75 uM after 24 hrs by Annexin V-FITC/propidium iodide staining based flow cytometry (reference value: 5.3 %); assay type: functional
# [5] = test system: ECa-109 cell line; test: Induction of apoptosis in human EC-109 cells assessed as apoptotic rate at 3 uM after 24 hrs by Annexin V-FITC/propidium iodide staining based flow cytometry (reference value: 5.3 %); assay type: functional
# [6] = test system: ECa-109 cell line; test: Induction of apoptosis in human EC109 cells assessed as increase in cleaved PARP expression after 24 hrs by Western blot analysis; assay type: functional, cell-based
# [7] = test system: ECa-109 cell line; test: Induction of apoptosis in human EC109 cells assessed as increase in BimEL expression after 24 hrs by Western blot analysis; assay type: functional, cell-based
# [8] = test system: ECa-109 cell line; test: Induction of apoptosis in human EC109 cells assessed as increase in phosphorylated ASK1 expression incubated for 24 hrs by Western blot analysis; assay type: functional, cell-based
# [9] = test system: ECa-109 cell line; test: Induction of apoptosis in human EC109 cells assessed as increase in phosphorylated JNK expression incubated for 24 hrs by Western blot analysis; assay type: functional, cell-based
# [10] = test system: ECa-109 cell line; test: Antiproliferative activity against human EC109 cells assessed as inhibition of cell growth at 0.06 to 4 uM preincubated with N-acetylcysteine for 4 hrs followed by compound addition and measured after 24 hrs by SRB assay; assay type: functional, cell-based; conditions: dose 0.06-4 µM
# [11] = test system: ECa-109 cell line; test: Induction of apoptosis in human EC109 cells assessed as increase in intracellular ROS level at 3 uM preincubated with N-acetylcysteine for 4 hrs followed by compound addition and incubated for 24 hrs by DCFH-DA staining based flow cytometry analysis (reference value: 0.6 %); assay type: functional
# [12] = test system: ECa-109 cell line; test: Induction of apoptosis in human EC-109 cells assessed as apoptotic rate at 3 uM preincubated with N-acetylcysteine for 4 hrs followed by compound addition and measured after 24 hrs by Annexin V-FITC/propidium iodide staining based flow cytometry (reference value: 5.7 %); assay type: functional
# [13] = test system: ECa-109 cell line; test: Induction of apoptosis in human EC-109 cells assessed as apoptotic rate at 3 uM preincubated with N-acetylcysteine for 4 hrs followed by compound addition and measured after 48 hrs by Annexin V-FITC/propidium iodide staining based flow cytometry (reference value: 3.8 %); assay type: functional
# [14] = test system: ECa-109 cell line; test: Induction of apoptosis in human EC-109 cells xenografted in nude BALB/c mouse assessed as appearance of morphological changes at 20 to 40 mg/kg, ip administered once daily for 14 days by H and E staining based histopathological analysis; assay type: functional, organism-based; conditions: dose 20-40 mg/kg, time 14.0 day
# [15] = test system: ECa-109 cell line; test: Induction of apoptosis in human EC-109 cells xenografted in nude BALB/c mouse assessed as apparent cellular loosening at 20 to 40 mg/kg, ip administered once daily for 14 days by H and E staining based histopathological analysis; assay type: functional, organism-based; conditions: dose 20-40 mg/kg, time 14.0 day
# [16] = test system: ECa-109 cell line; test: Induction of apoptosis in human EC-109 cells xenografted in nude BALB/c mouse assessed as nuclear shrinkage at 20 to 40 mg/kg, ip administered once daily for 14 days by H and E staining based histopathological analysis; assay type: functional, organism-based; conditions: dose 20-40 mg/kg, time 14.0 day
# [17] = test system: ECa-109 cell line; test: Induction of apoptosis in human EC-109 cells xenografted in BALB/c mouse assessed as change in Bax expression in tumor tissue at 20 mg/kg, ip QD for 14 days by Western blotting analysis relative to control; assay type: functional, organism-based; conditions: time 14.0 day
# [18] = test system: ECa-109 cell line; test: Induction of apoptosis in human EC-109 cells xenografted in BALB/c mouse assessed as change in Bax expression in tumor tissue at 40 mg/kg, ip QD for 14 days by Western blotting analysis relative to control; assay type: functional, organism-based; conditions: time 14.0 day
# [19] = test system: ECa-109 cell line; test: Induction of apoptosis in human EC-109 cells xenografted in BALB/c mouse assessed as increase in phosphorylated MKK4 in tumor tissue at 20 to 40 mg/kg, ip QD for 14 days by Western blotting analysis; assay type: functional, organism-based; conditions: dose 20-40 mg/kg, time 14.0 day
# [20] = Toxicity in BALB/c mouse assessed as effect on WBC level at 20 mg/kg, ip administered once daily for 14 days (reference value: 4.42 +/- 0.79 10^9/L); assay type: organism-based; conditions: in vivo, 336 h, time 14 day
# [21] = Toxicity in BALB/c mouse assessed as HCT at 40 mg/kg, ip administered once daily for 14 days (reference value: 49.08 +/- 1.56 %); assay type: organism-based; conditions: in vivo, 336 h, time 14 day
# [22] = Toxicity in BALB/c mouse assessed as effect on creatinine content at 20 to 40 mg/kg, ip administered once daily for 14 days; assay type: organism-based; conditions: in vivo, 336 h, dose 20-40 mg/kg, time 14 day
# [23] = Toxicity in BALB/c mouse assessed as effect on uric acid content at 20 to 40 mg/kg, ip administered once daily for 14 days; assay type: organism-based; conditions: in vivo, 336 h, dose 20-40 mg/kg, time 14 day
# [24] = Toxicity in BALB/c mouse assessed as abnormalities in liver at 20 to 40 mg/kg, ip administered once daily for 14 days by HE staining based assay; assay type: organism-based; conditions: in vivo, 336 h, dose 20-40 mg/kg, time 14 day
compound,measurement,setting,value
C=C1C(=O)[C@@]23[C@H](O)C[C@@H]4C(C)(C)CCC[C@@]4(COC(C)=O)[C@@H]2[C@@H](O)C[C@H]1[C@H]3OC(=O)c1ccc(CCl)cc1,IC50,[1],130 nM
same,inhibition (INH),[2],Tde
same,IC50,[3],520 nM
same,Activity,[4],23.3%
same,Activity,[5],45.4%
same,Activity,[6],Dose-dependent effect
same,Activity,[7],Dose-dependent effect
same,Activity,[8],Dose-dependent effect
same,Activity,[9],Dose-dependent effect
same,inhibition,[10],inactive
same,Activity,[11],0.1%
same,Activity,[12],5.6%
same,Activity,[13],4.8%
same,Activity,[14],Active
same,Activity,[15],Active
same,Activity,[16],Active
same,Activity,[17],inactive
same,Activity,[18],Active
same,Activity,[19],Active
same,Activity,[20],5.02 10^9/L
same,Activity,[21],46.26%
same,Activity,[22],Non-Toxic
same,Activity,[23],Non-Toxic
same,Activity,[24],Non-Toxic
